Test results: PubChem BioAssay AID602191 (Broad Institute, 2012)
Calls of active or inactive are those of the source.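 The calls were made as follows: active = fitted curve reaches 40% activation at a concentration no higher than the top valid tested dose; inconclusive = flat fit between 30% and 70% activation, or poor fit; inactive = uptake decrease, flat fit within 30% of zero, the rest.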 Residues, ends and D or L forms follow the SMILES beside them.

molecular target: Scavenger receptor class B member 1 (Mus musculus) (UniProt Q61009); experiment: enhancers of DiI-HDL lipid transfer via SR-BI – cell-based, ldlA[mSR-BI] CHO, DiI fluorescence, cherry-pick, dose response (AID 602191); conditions: ldlA[mSR-BI] CHO cells, 3 h, at 11 µM (top of the series);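 also: cell fluorescence from internalized DiI-labeled HDL after washing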;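 as to AC40: potency of activators raising HDL uptake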;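 as to activation (HDL uptake increase): 0% = median of DMSO wells and 100% = twice the DMSO signal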
Sequence (Q61009 whole entry, looked up): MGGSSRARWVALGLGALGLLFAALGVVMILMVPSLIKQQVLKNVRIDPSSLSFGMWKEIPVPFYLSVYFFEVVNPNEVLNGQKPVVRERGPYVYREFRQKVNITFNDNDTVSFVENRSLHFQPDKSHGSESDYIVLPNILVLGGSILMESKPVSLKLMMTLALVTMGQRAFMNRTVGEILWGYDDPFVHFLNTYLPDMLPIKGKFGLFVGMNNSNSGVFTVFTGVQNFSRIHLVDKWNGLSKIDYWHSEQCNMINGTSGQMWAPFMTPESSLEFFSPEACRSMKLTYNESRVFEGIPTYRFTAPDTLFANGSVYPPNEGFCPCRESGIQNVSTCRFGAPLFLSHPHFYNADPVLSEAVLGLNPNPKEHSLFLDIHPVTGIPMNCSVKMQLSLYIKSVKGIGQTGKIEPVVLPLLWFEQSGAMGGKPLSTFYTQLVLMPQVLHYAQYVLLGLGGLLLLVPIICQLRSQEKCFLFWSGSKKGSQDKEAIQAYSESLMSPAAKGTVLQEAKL

Compound | activation (HDL uptake increase)
CC(C)C[C@@H](CN1CCCC1CN1C(=S)NC[C@@H]1Cc1ccc(O)cc1)N1C[C@H](Cc2ccc(O)cc2)N(CC2CCCCC2)C1=S (some centres not stated) | -10.2% (inactive)

same assay, conditions: ldlA[mSR-BI] CHO cells, 3 h, at 35 µM (top of the series)

Compound | activation (HDL uptake increase)
Cc1nc2c3ccccc3nc(NNC(=O)CCC(=O)N3CCN(c4ccccc4)CC3)n2n1 | 6.41% (inactive)
Nc1ncnc2c1ncn2[C@@H]1O[C@H](CNCc2cccn2-c2nccs2)[C@@H](O)[C@H]1O | 10.3% (inactive)
CC(C)CC(CO)N1CCN(C(=O)c2cccc(C(F)(F)F)c2)CCC1=O (configuration not stated) | -7.8% (inactive)
Cc1ccc(S(=O)(=O)N(c2cccc(C)c2)C2CCS(=O)(=O)C2)cc1 (configuration not stated) | -9.17% (inactive)
CC(C)(C)n1nc2c(c1NC(=O)Cc1ccc(F)cc1)CS(=O)(=O)C2 | 9.82% (inactive)
CCn1nnnc1-c1ccc(OC)c(S(=O)(=O)Nc2ccc(C)c(C)c2)c1 | -11.8% (inactive)
Cc1ccc(CNC(=O)CCNC(=O)c2ccc(Br)o2)cc1 | -10.8% (inactive)
O=C(CCN1C(=O)[C@@H]2Cc3ccccc3CN2C1=O)N[C@@H](C(=O)O)c1ccccc1 | -2.01% (inactive)
COC(=O)C(Cc1ccc(O)cc1)NC(=O)C1CCN(S(=O)(=O)c2ccc(C)cc2)CC1 (configuration not stated) | -2.45% (inactive)
CC(C)Cc1cc(C(=O)NCc2ccco2)no1 | -10.4% (inactive)
O=C(C[C@H]1C/C=C\C[C@@H](Cc2ccc(F)cc2)C(=O)OC[C@H]2CCCN2C1=O)N[C@H](CO)Cc1ccccc1 | 6.35% (inactive)
O=C(Cc1ccsc1)N1CCN(S(=O)(=O)c2cccc(F)c2)CC1 | -4.56% (inactive)
O=C1CCC(C(=O)N2CCCCCCC2)CN1Cc1cccc(C(F)(F)F)c1 (configuration not stated) | -0.452% (inactive)
CN1CCN(C(=O)c2ccccc2NC(=O)c2ccccc2Br)CC1 | -7.48% (inactive)
NCCCC[C@H]1CNC(=O)C(=O)N1CCc1cc(C(F)(F)F)cc(C(F)(F)F)c1 | 6.34% (inactive)
COc1ccccc1OCC(=O)OCc1cc(-c2ccco2)on1 | -5.82% (inactive)
O=C(COC(=O)/C=C/c1cccc(Cl)c1)NCCc1ccc(Cl)cc1Cl | -1.95% (inactive)
O=C(C1=C[C@@H](c2ccc(Br)cc2)C[C@@H](OCc2ccc(CO)cc2)O1)N1CCN(Cc2ccccc2)CC1 | 0.848% (inactive)
CCN(CC(=O)Nc1c(F)cccc1F)C(=O)CCCc1nc2ccccc2c(=O)[nH]1 | -5.94% (inactive)
COc1ccc(Oc2nc(Oc3ccc(OC)cc3)nc(Oc3ccc(OC)cc3)n2)cc1 | -9.22% (inactive)
CC(=O)c1cccc(S(=O)(=O)NCCCN2CCOCC2)c1 | -4.98% (inactive)
CSCCC(NC(=O)c1ccco1)C(=O)NC1CCC(C)CC1 (configuration not stated) | -3.23% (inactive)
OC(Cc1ccccc1)(c1ccccc1)C1CN2CCC1CC2 (configuration not stated) | -3.56% (inactive)

Compound | activation (HDL uptake increase)
CCO[C@H]1OC(C(=O)N2CCOCC2)=C[C@@H](c2ccccc2)[C@@H]1CCCO | -6.57% (inactive)
O=C(c1ccco1)N1CCN(C(=S)Nc2ccc(F)c(Cl)c2)CC1 | -12.3% (inactive)
CC(=O)N1CCN(S(=O)(=O)c2cccc(C(=O)Nc3cc(C(F)(F)F)ccc3N3CCOCC3)c2)CC1 | -3.42% (inactive)
COc1ccc(NC(=O)CN(C)C(=O)CCC2CCCC2)cc1 | -6.8% (inactive)
Cn1c(=O)[nH]c(=O)c2c1nc(N1CCN(c3ccccc3)CC1)n2CCSc1ncccn1 | 2.78% (inactive)
O=C(CCNC(=O)c1ccccc1Cl)NCC(c1ccc(F)cc1)N1CCOCC1 (configuration not stated) | -2.65% (inactive)
Cc1ccc(OCCOCCN(C)C)c(Cl)c1 | 3.89% (inactive)
CCCC(=O)OCC(=O)Nc1ccc(OC(F)F)cc1 | 1.74% (inactive)
COc1ccc(CN(C(=O)c2cnccn2)C(C(=O)Nc2ccc(F)cc2)c2ccccc2)cc1 (configuration not stated) | -4.64% (inactive)
CCS(=O)(=O)c1nc(S(=O)(=O)c2ccc(C)cc2)c(N2CCC(C)CC2)s1 | -8.15% (inactive)
COc1ccc(/C(O)=C2/C(=O)C(=O)N(CCN3CCOCC3)C2c2ccccn2)cc1 (configuration not stated) | -1.9% (inactive)
O=C1N[C@@H](c2ccccc2)COC(=O)[C@H](Cc2ccc(F)cc2)CC/C=C/C[C@H]1CC(=O)N(CCO)Cc1ccccc1 | -5.36% (inactive)
CN(CC(=O)Nc1cccc(F)c1)C(=O)C1CC(=O)N(CCc2ccccc2)C1 (configuration not stated) | -13.2% (inactive)
COC(=O)CNC(=O)C12CC3CC(C1)CC(c1ccc(C)cc1)(C3)C2 | -4.62% (inactive)
Cc1ccc(CN2CCNC(=O)C2CC(=O)N2CCN(c3ncccn3)CC2)o1 (configuration not stated) | -8.96% (inactive)
CCCCn1c(N)c(N(CCOC)C(=O)C2CC(=O)N(Cc3ccco3)C2)c(=O)[nH]c1=O (configuration not stated) | 0.156% (inactive)
Cc1ccc2nc(N(CCCN(C)C)C(=O)c3ccc(S(=O)(=O)N4CCOCC4)cc3)sc2c1 | -2.75% (inactive)
Cc1cc(N2C(=O)C3C4C=CC(C4)C3C2=O)no1 (configuration not stated) | -2.45% (inactive)
CC(=O)NC(Cc1ccccc1)C(=O)OCC(=O)c1ccccc1 (configuration not stated) | -12% (inactive)
O=C1CCCCN1CCC(=O)N1CCCC(Nc2ccccc2)C1 (configuration not stated) | 4.76% (inactive)
COC(=O)c1oc2ccc(Br)cc2c1NC(=O)CN1CCN(C)CC1 | 4.26% (inactive)
O=C(CN1C(=O)NC2(CCCC2)C1=O)Nc1ccc(Cl)c(C(F)(F)F)c1 | -11.2% (inactive)
CC(C)(C)OC(=O)C[C@H]1C/C=C\C[C@H](CC(=O)NCCO)C(=O)NCCOC1=O | -2.75% (inactive)

Compound | activation (HDL uptake increase)
CC1CCCC(C)N1C(=O)COC(=O)CN1C(=O)c2ccccc2C1=O (configuration not stated) | -4.2% (inactive)
O=S(=O)(c1ccccc1F)N1CCN(Cc2cc3c(cc2Br)OCCO3)CC1 | -16.4% (inactive)
COc1ccc(CCNS(=O)(=O)c2cn(C)c(=O)n(C)c2=O)cc1OC | -3.3% (inactive)
O=S1(=O)CCO[C@H]2Cc3ccccc3[C@H]2N1Cc1ccccc1 | -12.6% (inactive)
CCOC(=O)c1c(NC(=O)C2COc3ccccc3O2)sc2c1CC(C)(C)NC2(C)C (configuration not stated) | -5.51% (inactive)
Cc1ccc(C2/C(=C(\O)c3ccc4c(c3)OCCO4)C(=O)C(=O)N2Cc2cccnc2)cc1 (configuration not stated) | -7.31% (inactive)
CC(=O)N1CCN(C(=O)c2ccc(-n3c(C)ccc3C)cc2)CC1 | -10.8% (inactive)
CC(OC(=O)c1ccc(S(=O)(=O)N2CCCCC2)cc1)C(=O)Nc1ccc(C(N)=O)cc1 (configuration not stated) | 0.807% (inactive)
CCc1nn(CC(=O)N2CCN(CC)CC2)c(=O)c2cccn12 | -9.62% (inactive)
COCCNC(=O)C1(C)C=CC2(CCCCC2)N1C(=O)c1ccccc1 (configuration not stated) | 3.23% (inactive)
O=C(CNC(=O)c1cncc(Br)c1)Nc1ccc(F)c(F)c1F | -11% (inactive)
C[C@@H](C(=O)OCC(=O)c1ccccc1)N1C(=O)C2CCCCC2C1=O (some centres not stated) | -7.88% (inactive)
CCC1C(=O)NCCN1C(=O)c1ccc(OC)c(OC2CCN(C(C)=O)CC2)c1 (configuration not stated) | -6.7% (inactive)
O=C1NCCCC1C(=O)NCCNC(=O)C(F)(F)F (configuration not stated) | -6.55% (inactive)
CC(C)OC(=O)C1C(=O)CC(C)(O)C(C(=O)OC(C)C)C1c1cccc([N+](=O)[O-])c1 (configuration not stated) | -0.289% (inactive)
CC[C@]12c3[nH]c4cc(-c5ccco5)ccc4c3CCN1C(=O)[C@@H](CC(=O)NC(C)(C)C)C[C@@H]2C(=O)N1CCN(C(=O)c2ccco2)CC1 | -20.6% (inactive)
COc1ccc(N2CC(NC(=O)N3CCN(C(=O)c4ccco4)CC3)CC2=O)cc1OC (configuration not stated) | 11% (inactive)
O=C(N1CCN(S(=O)(=O)c2ccc(Cl)cc2)CC1)n1ccnc1 | -2.88% (inactive)
CC[C@H](C)[C@@H]1NC(=O)[C@H]([C@@H](C)CC)NC(=O)[C@@H](CC(C)C)NC(=O)[C@H](Cc2ccccc2)NC(=O)[C@H](Cc2ccccc2)NC(=O)[C@@H]2CCCN2C(=O)[C@@H]2CCCN2C(=O)[C@H](C(C)C)NC(=O)[C@H](CC(C)C)NC1=O (HELM PEPTIDE1{F.F.[dL].I.I.L.V.P.P}$PEPTIDE1,PEPTIDE1,1:R1-9:R2$$$V2.0) | 5.97% (inactive)
O=C(O)CN(Cc1ccco1)S(=O)(=O)c1ccc(F)cc1 | -1.5% (inactive)
COCCNC(=O)c1onc(CSc2cccc(OC)c2)c1C(=O)O | 11.9% (inactive)
CCOc1cc(N2CCOCC2)c(OCC)cc1NC(=O)CSc1cccc[n+]1[O-] | -6.79% (inactive)

same assay, conditions: ldlA[mSR-BI] CHO cells, DiI-HDL uptake fluorescence, 3 h

Compound | AC40
CCOC(=O)c1ccc(NC(=O)c2nc[nH]c2C(=O)NCCCCNC(=O)c2[nH]cnc2C(=O)Nc2ccc(C(=O)OCC)cc2)cc1 | 29.8 µM
CC(C)NC(=O)C1(O)c2ccccc2NC(=O)N1c1ccc(Cl)c(Cl)c1 (configuration not stated) | > 35 µM (inactive)
FC(F)(F)c1ccc(C2[C@H]3CN(Cc4cccnc4)[C@H](c4ccccc4)C34CC2(c2cccnc2)C4)cc1 (some centres not stated) | > 35 µM (inactive)
COc1ccc(S(=O)(=O)N(C)C[C@H]2Oc3c(NC(=O)Nc4ccc(C(F)(F)F)cc4)cccc3C(=O)N([C@H](C)CO)C[C@@H]2C)cc1 | 33.2 µM
Cc1c(CCOC(=O)C23CC4(C)CC(C)(CC(C)(C4)C2)C3)sc[n+]1CC(=O)c1ccccc1 | > 35 µM (inactive)
CN(C)C(=O)CCc1ccc2c3c([nH]c2c1)[C@]1(CCC2CCCC2)[C@@H](C(=O)N2CCOCC2)C[C@H](CC(=O)NCC24CC5CC(CC(C5)C2)C4)C(=O)N1CC3 | > 35 µM (inactive)
Cc1ccc(OCC(=O)OC(C)C(=O)NC2CCCCC2C)cc1C (configuration not stated) | > 35 µM (inactive)
O=C(C[C@H]1C[C@H](C(=O)N2CCCCC2)[C@@]2(CCc3ccccc3)c3[nH]c4ccc(Cl)cc4c3CCN2C1=O)NCc1cccc(C(F)(F)F)c1 | > 35 µM (inactive)
